In patent publication US20090023737A1, “Imidazo-Pyridazines, Triazolo-Pyridazines and Related Benzodiazepine Receptor Ligands” (NEUROGEN CORPORATION, priority 2004, published 2009):
pKd: −log10 of the molar value.

Molecular target: benzodiazepine site of the GABAA receptor
Assay: Radioligand binding assay, 3H-Ro15-1788 (Flumazenil), purified rat cortical membranes
Conditions: previously determined; used in the Cheng-Prusoff equation; read-out: binding dissociation constant (Kd) of 3H-Ro15-1788

SMILES: CCOC(=O)c1ncn2c1CN(C)C(=O)c1cc(F)ccc1-2 [^3H-Ro15-1788]
- pKd: 9.00
